These results are taken from patent publication US20230213520A1, “IN VITRO METHOD FOR THE PROGNOSIS OF DISEASE PROGRESSION IN A PATIENT THAT SUFFERS FROM OR IS AT RISK OF DEVELOPING A SOLID TUMOR” (Bergonié Institute, priority 2020, published 2023).

Several values for one entry are separate records, joined by “and”; a condition that tells them apart may be missing. Equal values may be shown once.

Data set [1] deals with immunosuppressive macrophage infiltration. The following applies: preclinical model of metastatic colorectal cancer; cited from earlier work.
The test system of data set [2] is metastatic colorectal cancer. The settings on record: cited from earlier work.
A short description of data set [3]: REGOMUNE phase II study: safety (adverse events, CTCAE v5.0). More on the design: species or system human. The settings on record: in vivo. Here is the method: After an assessment of eligibility, patients received Regorafenib 160 mg per day on a three weeks on/one week off schedule, in cycles of 28 days. Avelumab treatment began on Day 15 cycle 1, by intravenous infusion once every 2 weeks. Treatment was continued until disease progression, unacceptable toxicity, investigator's decision to discontinue, or withdrawal of patient consent. Participants were monitored for adverse events at every follow-up assessment. Adverse events were graded according to National Cancer Institute Common Terminology Criteria for Adverse Events version 5.0. Laboratory assessments were done at baseline, and every 2 weeks afterwards until treatment discontinuation. Regorafenib dose modifications to manage adverse events were allowed (see study protocol). The dose of Regorafenib could be reduced to 120 mg and then to 80 mg. […] Tumor lesions were assessed according to RECIST version 1.1 at baseline (within 4 weeks prior to Cycle 1 Day 1), and every 8 weeks until disease progression or the start of another treatment. […]
All enrolled patients who initiated the study treatment were included in the safety analysis. […] The median follow-up was calculated using the reverse Kaplan-Meier method. […] Quantitative variables were described using the median and range, and qualitative variables were described using frequency, percentage and 95% confidence interval (binomial law). […]

Where [4] appears, read: Regorafenib single agent in addition to supportive care, pivotal study.

In the case of `CNC(=O)c1cc(Oc2ccc(NC(=O)Nc3ccc(Cl)c(C(F)(F)F)c3)c(F)c2)ccn1` [Regorafenib], the “Effect on immunosuppressive macrophage infiltration” value in data set [1] is listed as “reduce immunosuppressive macrophage infiltration”. Further, the “Patients with grade 3 or 4 treatment-related adverse events that needed some dose reduction” value in data set [2] (CORRECT (as well as CONCUR) study, single agent) is listed as “up to 54%”. For the same compound, in data set [2] (setting [4]), the Median overall survival was 6.4 months; the Median progression-free survival was 1.9 months and 2 months. Besides, in data set [2] (pivotal randomized study), the Objective response rate is reported as 1%. Moreover, the “Patients with dose reduction or temporary treatment discontinuation because of a drug-related adverse event” value in data set [3] (human) was 41 patients.
With Avelumab, the “Patients with dose reduction or temporary treatment discontinuation because of a drug-related adverse event” value in data set [3] was found to be 17 patients.
